Results from US3930838A, “S-benzyl-N,N-disec-butylthiocarbamate and its use as a rice field herbicide and a rice growth stimulant” (priority 1970, dated 1976).

Legend:
rats = details: os, literature values; cited from earlier work
Echinocloa spp. [1] = assay: Activity on Echinocloa in flooded hothouse boxes, first sowing (Example 14); assay type: in vivo; details: 24 days
Description: A test was arranged in a hothouse on a set of boxes having a 1,000 cm^2 internal surface. 18 Kg. of sieved rice field earth were put into each box. After leveling, the earth surfaces of each of a set of six boxes were uniformly sprayed with hydroacetone solutions containing, respectively, 0, 0.5, 0.75, 1, 1.25, and 1.5% of M3432. […] Each box was flooded with a 10 cm. water layer measured from the earth surface. The sowing was carried out immediately afterwards with a pre-germinated (cv) RIBE rice seed, employing a quantity of 40 seeds per box.
(§1) The same method described in Example 9 was followed, the only variation being in sowing Echinocloa spp. (40 slightly pregerminated seeds per box) instead of rice.
24 Days after the treatment, the results were observed.

rice [2] = assay: Hothouse test on rice in flooded boxes, 27 days (Example 9a); assay type: in vivo, rice cv. RIBE
Description: A test was arranged in a hothouse on a set of boxes having a 1,000 cm^2 internal surface. 18 Kg. of sieved rice field earth were put into each box. After leveling, the earth surfaces of each of a set of six boxes were uniformly sprayed with hydroacetone solutions containing, respectively, 0, 0.5, 0.75, 1, 1.25, and 1.5% of M3432. 20 Cc. of solution was sprayed into each box, corresponding to 0, 10, 15, 20, 25, and 30 kg./ha., respectively. Each box was flooded with a 10 cm. water layer measured from the earth surface. The sowing was carried out immediately afterwards with a pre-germinated (cv) RIBE rice seed, employing a quantity of 40 seeds per box.
During the test, the hothouse temperature ranged from +10°to +28°C. 27 Days after the treatment, all the rice plants were recovered from each box and subjected to biometric controls.

grass (Echinocloa spp.) = assay: Residual activity, second sowing with grass 24 days after treatment (Example 14); assay type: in vivo; details: additional 24 days
Description: as §1
After the Echinocloa spp. plants were killed, a second sowing with grass was carried out in the same boxes, 24 days after the treatment, employing 20 slightly pre-germinated seeds per box.

rice [3] = assay: Rice seed surface treatment, pots, test No. 1 (Example 17); assay type: in vivo, rice cv. RIBE; details: 41 days
Description: A set of glass pots was prepared as described in Example 7. Immediately after such preparation the pots were filled with water to a level of 7 cm. above the ground surface. Cv. RIBE rice seeds, which were previously allowed to swell in water, were divided into four groups. Each group was treated, by application with a micro syringe with a quantity of M3432 composition; containing 70% active product, corresponding to the following doses of a.p. per ha.: 0, 2.5, 5, and 10 kg. 15 seeds coated with the compound were placed into each pot and subsequently covered with a thin layer of earth. After 41 days, the following results were obtained.

[4] = Solubility and volatility; assay type: physicochemical
rice [5] = assay: Stimulating action on rice, general statement; details: in vivo
[6] = Acute oral toxicity, mice; details: mouse, in vivo
Barnyard grass = assay: Rice seed treatment, 5000 square meter field plots, test No. 3, barnyard grass (Example 17); assay type: in vivo; details: 67 days; for Barnyard grass tiller number: single 1 m^2 testing area
Description: A further test was carried out outdoors on loam soil on plots of about 5000 square meters surface.
After flooding each plot, seeds treated as in Test No. […] In all cases, the seen quantity was 150 kg./ha. 67 days after sowing, the results were gathered on 5 representative testing areas of 1 square meter each for each dosage level.

Echinocloa spp. [7] = assay: Post emergence hothouse test No. 2 (Example 16); assay type: in vivo; details: 4, 6, and 8 kg./ha., 26 days; plants max. 10 cm. at treatment
Description: A set of boxes having a 1,000 cm^2 internal surface was prepared in a hothouse according to the method described in Example 9. The boxes were sowed with Echinocloa spp. (70 seeds per box). After saturation of the soil, and as soon as the infesting plants emerged from the soil, the boxes were flooded with a 7 cm. layer of water. When the plants reached a maximum height of 3-4 cm., the treatment was effected by spraying the flooding water surfaces with hydroacetone solutions according to the modalities employed in Example 9. 3 days after the treatment, the following results were observed:
A second test was carried out in the same manner as Test No. 1 except that the treatment took place when the infesting plants had reached a maximum of 10 cm. 26 days after such treatment, the following was observed: […]

With CCSC(=O)N1CCCCCC1 [Molinate, ethyl-1-hexamethylene-imino-carbothiolate, reference compound] as the compound, how does the “Acute toxicity LD50” value (rats) read?
Its value is 500 to 725 mg/kg.

Which Shoot (Echinocloa spp. [1]; 2 kg./ha.) does the source give for CCC(C)N(C(=O)SCc1ccccc1)C(C)CC (centres unmarked) [M3432, S-benzyl-N,N-disec.butylthiocarbamate] here?
Its Shoot is 8.5 cm.

What about the Stand (Echinocloa spp. [1]; 2 kg./ha.) of the same compound?
Its Stand is 2.5%.

What about the Shoot (Echinocloa spp. [1]; 4 kg./ha.) of the same compound?
Its Shoot is 0 cm.

And the Stand (Echinocloa spp. [1]; 4 kg./ha.)?
The Stand was 0%.

And the Shoot (Echinocloa spp. [1]; 6 kg./ha.)?
Its Shoot is 0 cm.

And the Stand (Echinocloa spp. [1]; 6 kg./ha.)?
Its Stand is 0%.

What about the Shoot (Echinocloa spp. [1]; 8 kg./ha.) of the same compound?
The Shoot was 0 cm.

What about the Stand (Echinocloa spp. [1]; 8 kg./ha.) of the same compound?
Its Stand is 0%.

And the Main root (rice [2]; 10 kg./ha.)?
The Main root was 4.82 cm.

And the “Main root, % of control” value (rice [2]; 10 kg./ha.)?
Its value is 150 % of control.

And the Secondary roots (rice [2]; 10 kg./ha.)?
Its Secondary roots is 2.82 No.

What about the “Secondary roots, % of control” value (rice [2]; 10 kg./ha.) of the same compound?
Its value is 127 % of control.

What about the Shoot (rice [2]; 10 kg./ha.) of the same compound?
The Shoot was 11.70 cm.

And the “Shoot, % of control” value (rice [2]; 10 kg./ha.)?
The value was 198 % of control.

And the Sprouted plants (rice [2]; 10 kg./ha.)?
The Sprouted plants was 52.5%.

And the “Sprouted plants, % of control” value (rice [2]; 10 kg./ha.)?
The value was 131 % of control.

What about the Main root (rice [2]; 15 kg./ha.) of the same compound?
Its Main root is 4.06 cm.

And the “Main root, % of control” value (rice [2]; 15 kg./ha.)?
The value was 131 % of control.

What about the Secondary roots (rice [2]; 15 kg./ha.) of the same compound?
The Secondary roots was 2.95 No.

And the “Secondary roots, % of control” value (rice [2]; 15 kg./ha.)?
The value was 133 % of control.

What about the Shoot (rice [2]; 15 kg./ha.) of the same compound?
The Shoot was 11.99 cm.

And the “Shoot, % of control” value (rice [2]; 15 kg./ha.)?
The value was 203 % of control.

And the Sprouted plants (rice [2]; 15 kg./ha.)?
Its Sprouted plants is 57.5%.

What about the “Sprouted plants, % of control” value (rice [2]; 15 kg./ha.) of the same compound?
Its value is 144 % of control.

And the Main root (rice [2]; 20 kg./ha.)?
The Main root was 8.29 cm.

And the “Main root, % of control” value (rice [2]; 20 kg./ha.)?
The value was 267 % of control.

And the Secondary roots (rice [2]; 20 kg./ha.)?
The Secondary roots was 4.42 No.

What about the “Secondary roots, % of control” value (rice [2]; 20 kg./ha.) of the same compound?
The value was 199 % of control.

What about the Shoot (rice [2]; 20 kg./ha.) of the same compound?
Its Shoot is 12.15 cm.

What about the “Shoot, % of control” value (rice [2]; 20 kg./ha.) of the same compound?
The value was 205 % of control.

And the Sprouted plants (rice [2]; 20 kg./ha.)?
The Sprouted plants was 77.5%.

What about the “Sprouted plants, % of control” value (rice [2]; 20 kg./ha.) of the same compound?
Its value is 193 % of control.

What about the Main root (rice [2]; 25 kg./ha.) of the same compound?
Its Main root is 6.77 cm.

And the “Main root, % of control” value (rice [2]; 25 kg./ha.)?
The value was 218 % of control.

What about the Secondary roots (rice [2]; 25 kg./ha.) of the same compound?
The Secondary roots was 4.66 No.

What about the “Secondary roots, % of control” value (rice [2]; 25 kg./ha.) of the same compound?
The value was 210 % of control.

What about the Shoot (rice [2]; 25 kg./ha.) of the same compound?
The Shoot was 16.77 cm.

And the “Shoot, % of control” value (rice [2]; 25 kg./ha.)?
Its value is 283 % of control.

And the Sprouted plants (rice [2]; 25 kg./ha.)?
Its Sprouted plants is 85.0%.

What about the “Sprouted plants, % of control” value (rice [2]; 25 kg./ha.) of the same compound?
The value was 212 % of control.

What about the Main root (rice [2]; 30 kg./ha.) of the same compound?
The Main root was 8.84 cm.

And the “Main root, % of control” value (rice [2]; 30 kg./ha.)?
Its value is 285 % of control.

What about the Secondary roots (rice [2]; 30 kg./ha.) of the same compound?
Its Secondary roots is 4.90 No.

And the “Secondary roots, % of control” value (rice [2]; 30 kg./ha.)?
Its value is 220 % of control.

What about the Shoot (rice [2]; 30 kg./ha.) of the same compound?
The Shoot was 14.59 cm.

And the “Shoot, % of control” value (rice [2]; 30 kg./ha.)?
Its value is 246 % of control.

And the Sprouted plants (rice [2]; 30 kg./ha.)?
The Sprouted plants was 87.5%.

And the “Sprouted plants, % of control” value (rice [2]; 30 kg./ha.)?
Its value is 219 % of control.

And the Shoot (grass (Echinocloa spp.); 2 kg./ha.)?
Its Shoot is 26.5 cm.

What about the Stand (grass (Echinocloa spp.); 2 kg./ha.) of the same compound?
The Stand was 100%.

What about the Shoot (grass (Echinocloa spp.); 4 kg./ha.) of the same compound?
The Shoot was 27.0 cm.

And the Stand (grass (Echinocloa spp.); 4 kg./ha.)?
The Stand was 65%.

What about the Shoot (grass (Echinocloa spp.); 6 kg./ha.) of the same compound?
Its Shoot is 0 cm.

What about the Stand (grass (Echinocloa spp.); 6 kg./ha.) of the same compound?
Its Stand is 0%.

What about the Shoot (grass (Echinocloa spp.); 8 kg./ha.) of the same compound?
The Shoot was 0 cm.

What about the Stand (grass (Echinocloa spp.); 8 kg./ha.) of the same compound?
Its Stand is 0%.

And the Main root (rice [3]; 2.5 kg./ha.)?
The Main root was 8.93 cm.

And the Secondary roots (rice [3]; 2.5 kg./ha.)?
Its Secondary roots is 3.90 no.

And the Shoot (rice [3]; 2.5 kg./ha.)?
The Shoot was 17.16 cm.

And the Stand (rice [3]; 2.5 kg./ha.)?
Its Stand is 68.80%.

And the Main root (rice [3]; 5 kg./ha.)?
Its Main root is 8.48 cm.

What about the Secondary roots (rice [3]; 5 kg./ha.) of the same compound?
The Secondary roots was 4.02 no.

What about the Shoot (rice [3]; 5 kg./ha.) of the same compound?
Its Shoot is 16.83 cm.

What about the Stand (rice [3]; 5 kg./ha.) of the same compound?
The Stand was 62.20%.

And the Main root (rice [3]; 10 kg./ha.)?
Its Main root is 10.07 cm.

What about the Secondary roots (rice [3]; 10 kg./ha.) of the same compound?
The Secondary roots was 4.23 no.

What about the Shoot (rice [3]; 10 kg./ha.) of the same compound?
Its Shoot is 16.92 cm.

And the Stand (rice [3]; 10 kg./ha.)?
Its Stand is 62.20%.

What about the Volatility [4] of the same compound?
Its Volatility is “not volatile”.

What about the “Solubility in organic solvents” value ([4]; benzene, ether, heptane, methanol, cyclohexanone, acetone, methyl chloride, dichloroethane) of the same compound?
The value was “soluble”.

And the Solubility in water ([4]; water)?
Its Solubility in water is “practically insoluble”.

What about the Malformations of rice (rice [5]) of the same compound?
Its Malformations of rice is “no malformations are noticed”.

What about the LD50 [6] of the same compound?
Its LD50 is 8000 mg/kg.

And the “Barnyard grass tiller number” value (Barnyard grass; 3.4 kg./ha.)?
The value was 0 (no.)/m^2.

What about the “Barnyard grass tiller number, average on 5 testing areas” value (Barnyard grass; 3.6 kg./ha.) of the same compound?
Its value is 0 (no.)/m^2.

And the “Barnyard grass tiller number, average on 5 testing areas” value (Barnyard grass; 4.0 kg./ha.)?
The value was 0 (no.)/m^2.

What about the “Barnyard grass tiller number” value (Barnyard grass; 4.0 kg./ha.) of the same compound?
Its value is 0 (no.)/m^2.

What about the Shoot (Echinocloa spp. [7]) of the same compound?
The Shoot was 0 cm.

And the Stand (Echinocloa spp. [7])?
Its Stand is 0%.
